Measured values as given in US20150148311A1, “NON-SYSTEMIC TGR5 AGONISTS” (Ardelyx, Inc., priority 2011, published 2015).
Read-outs that look alike come from different tables or passages of the source.

Tests used:
[1] = target: T1, endogenously expressed TGR5 in NCI H716 (Homo sapiens, UniProt Q8TDU6); assay: Cell-based TGR5 assay, NCI-H716 cells endogenously expressing human TGR5, cAMP by HTRF; conditions: 30 min at 37 C, 22 nM to 50 μM, read-out: pEC50 endogenously expressed TGR5 in NCI H716 (converted)
T1 construct: human caecum carcinoma cell line NCI-H716 which endogenously expresses human TGR5; endogenous in cells; host or cells: NCI-H716
T1 sequence (Q8TDU6 1-330): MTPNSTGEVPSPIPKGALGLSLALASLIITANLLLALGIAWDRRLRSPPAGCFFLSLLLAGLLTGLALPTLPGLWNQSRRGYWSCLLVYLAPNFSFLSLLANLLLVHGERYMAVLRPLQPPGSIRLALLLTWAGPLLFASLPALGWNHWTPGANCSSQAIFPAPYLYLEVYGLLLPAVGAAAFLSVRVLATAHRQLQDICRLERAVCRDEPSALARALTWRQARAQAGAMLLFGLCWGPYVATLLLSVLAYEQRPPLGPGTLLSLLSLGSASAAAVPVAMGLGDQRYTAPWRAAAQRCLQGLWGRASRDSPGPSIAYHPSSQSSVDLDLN
Protocol: Two primary cell based screens were performed. The first utilized HEK293 cells stably transfected to heterologously express human TGR5. The second screen used the human caecum carcinoma cell line NCI-H716 which endogenously expresses human TGR5. In both assays, cells are treated with candidate TGR5 activators and assessed for the increased intercellular levels of cAMP. […]
(§1) TGR5-mediated cAMP generation was measured using a homogeneous time resolved fluorescence (HTRF) detection method (Cisbio). Test compounds were dissolved in DMSO to a final concentration of 10 mM. Serial 3-fold dilutions of the stock solution were made in DMSO, and these solutions were diluted 100-fold into Hanks Balanced Salt Solution supplemented with 10 mM HEPES pH 7.4 and 0.5 mM isobutyl methylxanthine (IBMX). Prior to assay, culture medium was replaced with fresh medium, and test compounds diluted in HBSS/HEPES/IBMX were added to the cells and incubated at 37° C. for 30 minutes.
(§2) Following incubation with test compounds, cAMP was detected through the successive addition of cAMP labeled with the modified allophyocyanin dye d2 (cAMP-d2) and cryptate-labeled anti-cAMP in lysis buffer, and reading HTRF per the manufacturer's instructions. A standard curve was used to convert the raw HTRF data into [cAMP].

human TGR5 = target: T2, human TGR5 (Homo sapiens, UniProt Q8TDU6); assay: Cell-based TGR5 assay, HEK293 cells stably expressing human TGR5, cAMP by HTRF; conditions: 0.05 nM to 10 μM
T2 construct: expressed in transfected cells
T2 sequence (Q8TDU6 1-330): T1 sequence (Q8TDU6 1-330)
Protocol: Two primary cell based screens were performed. The first utilized HEK293 cells stably transfected to heterologously express human TGR5. The second screen used the human caecum carcinoma cell line NCI-H716 which endogenously expresses human TGR5. In both assays, cells are treated with candidate TGR5 activators and assessed for the increased intercellular levels of cAMP.
HEK293 cells were transfected with a vector that expresses a gene encoding human TGR5, and a stable cell line was isolated using drug selection following standard techniques. Cells were grown overnight at 37° C./5% CO2 prior to assay.
as §1, §2

[2] = HEK293 cells stably expressing human TGR5, 30 min at 37 C, read-out: pEC50 Human TGR5 (converted)

Row | SMILES | EC50 [1] [µM] | EC50 (human TGR5; [2]) [µM] | EC50 (human TGR5; pEC50 Human TGR5, HEK293 cells stably expressing human TGR5, 30 min at 37 C) [µM]
1 | Cc1ccc(Cl)c(COC2(C(=O)N3CCN(C4CC4)c4ccccc43)CC2)c1F [Example 249] | 1.26 to 50.1 | 1.26 to 50.1 | 
2 | O=C(N1CCN(C2CC2)c2ccccc21)C1(OCc2cc(Cl)ccc2Cl)CCC1 [Example 41, 1-cyclopropyl-4-([1-[(2,5-dichlorophenyl)methoxy]cyclobutyl]carbonyl)-1,2,3,4-tetrahydroquinoxaline] | 0.126 to 1 | < 0.1 | 
3 | CN(C[C@H](O)[C@@H](O)[C@H](O)[C@H](O)CO)C(=O)CCc1ccc(Cl)c(CN2CSC[C@H]2C(=O)N2CCN(C3CC3)c3ccccc32)c1 [Example 215] | 1.26 to 50.1 | 0.126 to 1 | 
4 | CN(C[C@H](O)[C@@H](O)[C@H](O)[C@H](O)CO)C(=O)NCCCCOc1cc(Cl)c(CNC2(C(=O)N3CCN(C4CC4)c4ccccc43)CC2)cc1Cl [Example 186] | 1.26 to 50.1 | 0.126 to 1 | 
5 | CN(C[C@H](O)[C@@H](O)[C@@H](O)[C@H](O)CO)C(=O)CCCCc1cc(Cl)c(CNC2(C(=O)N3CCN(C4CC4)c4ccccc43)CC2)cc1Cl [Example 220] | < 0.1 | < 0.1 | 
6 | O=C(N1CCN(C2CC2)c2ccccc21)C1(NCc2cc(Cl)ccc2C(F)(F)F)CC1 [Example 254] | < 0.1 | < 0.1 | 
7 | CN(C[C@H](O)[C@@H](O)[C@H](O)[C@H](O)CO)C(=O)CCc1cc(Cl)c(CN2CCC[C@H]2C(=O)N2CCN(C3CC3)c3ccccc32)cc1Cl [Example 48, 3-(2,5-dichloro-4-(((S)-2-(4-cyclopropyl-1,2,3,4-tetrahydroquinoxaline-1carbonyl)pyrrolidin-1-yl)methyl)phenyl)-N-methyl-N-((2S,3R,4R,5R)-2,3,4,5,6-pentahydroxyhexyl)propanamide] | 1.26 to 50.1 | 0.126 to 1 | 
8 | O=C(N1CCN(C2CC2)c2ccccc21)C1(CSc2cc(Cl)ccc2Cl)CC1 [Example 180, (4-cyclopropyl-3,4-dihydroquinoxalin-1(2H)-yl)(1-((2,5-dichlorophenylthio)methyl)cyclopropyl)methanone] | 0.126 to 1 | < 0.1 | 
9 | O=C(CCCCc1ccc(Cl)c(CNC2(C(=O)N3CCN(C4CC4)c4ccccc43)CC2)c1)NC[C@H](O)[C@@H](O)[C@H](O)[C@H](O)CO [Example 261] |  | 0.126 to 1 | 
10 | O=C([C@@H]1CSCN1Cc1cc(Cl)c(CCCCCNc2nc(N(CCO)CCO)nc(N(CCO)CCO)n2)cc1Cl)N1CCN(C2CC2)c2ccccc21 [Example 173, 2-({4-[bis(2-hydroxyethyl)amino]-6-{[5-(2,5-dichloro-4-{[(4R)-4-[(4-cyclopropyl-1,2,3,4-tetrahydroquinoxalin-1-yl)carbonyl]-1,3-thiazolidin-3-yl]methyl}phenyl)pentyl]amino}-1,3,5-triazin-2-yl}(2-hydroxyethyl)amino)ethan-1-ol] |  | 0.126 to 1 | 
11 | CN(C[C@H](O)[C@@H](O)[C@H](O)[C@H](O)CO)C(=O)CCCCc1ccc(Cl)c(CNC2(C(=O)N3CCN(C4CC4)c4ccccc43)CC2)c1 [Example 260] |  | 0.126 to 1 | 
12 | O=C(N1CCN(C2CC2)c2ccccc21)C1(NCc2cc(C3CC3)ccc2Cl)CC1 [Example 183, (1-(2-chloro-5-cyclopropylbenzylamino)cyclopropyl)(4-cyclopropyl-3,4-dihydroquinoxalin-1(2H)-yl)methanone] |  | < 0.1 | 
13 | CN(CCCCc1cc(Cl)c(OCC2(C(=O)N3CCN(C4CC4)c4ccccc43)CC2)cc1Cl)C[C@H](O)[C@@H](O)[C@H](O)[C@H](O)CO [Example 171, (4-cyclopropyl-3,4-dihydroquinoxalin-1(2H)-yl)(1-((2,5-dichloro-4-(4-(methyl((2S,3R,4R,5R)-2,3,4,5,6-pentahydroxyhexyl)amino)butyl)phenoxy)methyl)-cyclopropyl)methanone] |  | 0.126 to 1 | 
14 | O=C(CCCCc1ccc(C(F)(F)F)c(CNC2(C(=O)N3CCN(C4CC4)c4ccccc43)CC2)c1)NC[C@H](O)[C@@H](O)[C@H](O)[C@H](O)CO [Example 272] |  | 1.26 to 50.1 | 
15 | CN(C[C@H](O)[C@@H](O)[C@H](O)[C@H](O)CO)C(=O)c1cnc(SCc2cc(Cl)c(CN3CSC[C@H]3C(=O)N3CCN(C4CC4)c4ccccc43)cc2Cl)n1C [Example 231] |  | 0.126 to 1 | 
16 | CN(C[C@H](O)[C@@H](O)[C@H](O)[C@H](O)CO)C(=O)c1ccc(COc2cc(Cl)c(CN3CSC[C@H]3C(=O)N3CCN(C4CC4)c4ccccc43)cc2Cl)nc1 [Example 205] |  | 0.126 to 1 | 

Row | SMILES | EC50 [1] [µM] | EC50 (human TGR5; [2]) [µM] | EC50 (human TGR5; pEC50 Human TGR5, HEK293 cells stably expressing human TGR5, 30 min at 37 C) [µM]
17 | O=C(NCCCN(CCCNC(=O)[C@H](O)[C@@H](O)[C@H](O)[C@H](O)CO)C(=O)NCCCCOc1cc(Cl)c(CN2CSC[C@H]2C(=O)N2CCN(C3CC3)c3ccccc32)cc1Cl)[C@H](O)[C@@H](O)[C@H](O)[C@H](O)CO [Example 195] |  |  | 0.126 to 1
18 | CN(C[C@H](O)[C@@H](O)[C@H](O)[C@H](O)CO)C(=O)c1cc(NCCCCCc2cc(Cl)c(CN3CSC[C@H]3C(=O)N3CCN(C4CC4)c4ccccc43)cc2Cl)nc(N(C)CCO)n1 [Example 224] |  | 0.126 to 1 | 
19 | Cn1nc(C(=O)O)cc1OCc1cc(Cl)c(CN2CSC[C@H]2C(=O)N2CCN(C3CC3)c3ccccc32)cc1Cl [Example 233] |  | 0.126 to 1 | 
20 | O=C(NCCCN(CCCNC(=O)[C@H](O)[C@@H](O)[C@H](O)[C@H](O)CO)C(=O)c1ccc(COc2cc(Cl)c(CN3CSC[C@H]3C(=O)N3CCN(C4CC4)c4ccccc43)cc2Cl)cc1)[C@H](O)[C@@H](O)[C@H](O)[C@H](O)CO [Example 197] |  | 1.26 to 50.1 | 
21 | CN(C[C@H](O)[C@@H](O)[C@H](O)[C@H](O)CO)C(=O)CCCCc1cc(Cl)c(COC2(C(=O)N3CCN(C4CC4)c4ccccc43)CC2)cc1Cl [Example 192] |  | < 0.1 | 
22 | CN(C[C@H](O)[C@H](O)[C@@H](O)[C@H](O)CO)C(=O)c1ccc(CCc2cc(Cl)c(CN3CSC[C@H]3C(=O)N3CCN(C4CC4)c4ccccc43)cc2Cl)cn1 [Example 201] |  | 0.126 to 1 | 
23 | CN(C[C@H](O)[C@@H](O)[C@H](O)[C@H](O)CO)C(=O)NCCCc1cc(Cl)c(OCC2(C(=O)N3CCN(C4CC4)c4ccccc43)CC2)cc1Cl [Example 253] |  | 0.126 to 1 | 
24 | O=C([C@H]1C[C@H](F)CN1Cc1cc(Cl)ccc1C(F)(F)F)N1CCN(C2CC2)c2ccccc21 [Example 264] |  | 0.126 to 1 | 
25 | CN(C[C@H](O)[C@@H](O)[C@H](O)[C@H](O)CO)C(=O)CCCCc1ccc(C(F)(F)F)c(CNC2(C(=O)N3CCN(C4CC4)c4ccccc43)CC2)c1 [Example 172, 5-(3-((1-(4-cyclopropyl-1,2,3,4-tetrahydroquinoxaline-1-carbonyl)cyclopropylamino)methyl)-4-(trifluoromethyl)phenyl)-N-methyl-N-((2S,3R,4R,5R)-2,3,4,5,6-pentahydroxyhexyl)pentanamide] |  | 1.26 to 50.1 | 
26 | COC(=O)c1cc(NCCCCCc2cc(Cl)c(CN3CSC[C@H]3C(=O)N3CCN(C4CC4)c4ccccc43)cc2Cl)nc(N(C)C[C@H](O)[C@@H](O)[C@H](O)[C@H](O)CO)n1 [Example 223] |  | 0.126 to 1 | 
27 | O=C(NCCCN(CCCNC(=O)[C@H](O)[C@@H](O)[C@H](O)[C@H](O)CO)C(=O)CCc1cc(Cl)c(CN2CSC[C@H]2C(=O)N2CCN(C3CC3)c3ccccc32)cc1Cl)[C@H](O)[C@@H](O)[C@H](O)[C@H](O)CO [Example 209] |  | 1.26 to 50.1 | 
28 | O=C([C@@H]1CSCN1Cc1cc(Cl)c(CN2CSC[C@H]2C(=O)N2CCN(C3CC3)c3ccccc32)cc1Cl)N1CCN(C2CC2)c2ccccc21 [Example 284] |  | 1.26 to 50.1 | 
29 | N=C(N)NCCCCCc1cc(Cl)c(CN2CSC[C@H]2C(=O)N2CCN(C3CC3)c3ccccc32)cc1Cl [Example 181, (R)-(3-(4-(5-guanidinylpentyl)-2,5-dichlorobenzyl)thiazolidin-4-yl)(4-cyclopropyl-3,4-dihydroquinoxalin-1(2H)-yl)methanone] |  | < 0.1 | 
30 | NCCCC[C@@H]1NC(=O)N(CCCCCc2cc(Cl)c(CN3CSC[C@H]3C(=O)N3CCN(C4CC4)c4ccccc43)cc2Cl)C1=O [Example 273] |  | 0.126 to 1 | 
31 | O=C(CCCCc1ccc(Cl)c(CNC2(C(=O)N3CCN(C4CC4)c4ccccc43)CC2)c1)NC[C@H](O)[C@@H](O)[C@H](O)[C@H](O)CO [Example 263] |  | 1.26 to 50.1 | 
32 | CN(C[C@H](O)[C@@H](O)[C@H](O)[C@H](O)CO)C(=O)CN(CCCCCc1cc(Cl)c(CN2CSC[C@H]2C(=O)N2CCN(C3CC3)c3ccccc32)cc1Cl)CC(=O)O [Example 277] |  | 0.126 to 1 | 
